This is an account of results in paper PMC4634939 (Journal of medicinal chemistry, 2015).

The target in one test is T1, TLR4 (Mus musculus, UniProt Q9JHF9+Q9QUK6).
T1 sequence (Q9QUK6 26-835): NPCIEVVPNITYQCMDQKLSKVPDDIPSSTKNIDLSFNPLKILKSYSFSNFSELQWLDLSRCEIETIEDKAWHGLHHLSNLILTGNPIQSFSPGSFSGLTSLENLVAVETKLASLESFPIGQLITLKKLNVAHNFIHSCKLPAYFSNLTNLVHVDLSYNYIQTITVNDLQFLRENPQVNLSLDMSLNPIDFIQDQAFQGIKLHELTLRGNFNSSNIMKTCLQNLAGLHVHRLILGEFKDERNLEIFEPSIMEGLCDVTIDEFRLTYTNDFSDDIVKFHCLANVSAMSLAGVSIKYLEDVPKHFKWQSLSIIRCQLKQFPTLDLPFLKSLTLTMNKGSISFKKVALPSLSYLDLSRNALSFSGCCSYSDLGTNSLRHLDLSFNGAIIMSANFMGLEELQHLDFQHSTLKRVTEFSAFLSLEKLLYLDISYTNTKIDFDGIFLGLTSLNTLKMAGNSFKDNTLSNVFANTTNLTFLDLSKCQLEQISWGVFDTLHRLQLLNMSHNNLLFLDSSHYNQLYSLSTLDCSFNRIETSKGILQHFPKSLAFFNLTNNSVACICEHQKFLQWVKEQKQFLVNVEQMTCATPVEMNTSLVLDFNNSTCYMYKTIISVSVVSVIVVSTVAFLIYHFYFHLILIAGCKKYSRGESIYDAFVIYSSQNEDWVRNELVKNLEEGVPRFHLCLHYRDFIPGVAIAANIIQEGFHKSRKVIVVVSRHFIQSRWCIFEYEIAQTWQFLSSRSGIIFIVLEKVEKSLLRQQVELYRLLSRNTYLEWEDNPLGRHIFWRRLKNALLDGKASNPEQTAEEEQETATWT
T1 sequence (Q9JHF9 19-160): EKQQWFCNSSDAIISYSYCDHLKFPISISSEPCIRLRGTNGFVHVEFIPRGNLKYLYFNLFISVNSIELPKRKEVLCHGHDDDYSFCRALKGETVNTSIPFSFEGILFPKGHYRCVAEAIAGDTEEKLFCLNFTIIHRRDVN

The nature of test [1]: Hargreaves test for analgesia. The note with it: rat, intrathecal morphine 15 μg plus vehicle, P < 0.05.

Consider `O=C1CC[C@]2(O)[C@@H]3Cc4ccc(O)c5c4[C@]2(CCN3CCc2ccccc2)[C@@H]1O5` [1j, (4S,4aR,7aS,12bR)-4a,9-Dihydroxy-3-phenethyl-2,3,4,4a,5,6-hexahydro-1H-4,12-methanobenzofuro[3,2-e]isoquinolin-7(7aH)-one], for which, on TLR4 (IC50 of viability / IC50 of NO), the “ratio of cell viability IC50 (cytotoxicity) to TLR4 antagonist activity” value is recorded as ~ 100. Also, on TLR4 (relative to (+)-naltrexone 1a, NO assay in BV-2 cells), the “TLR4 antagonist activity, times better than (+)-naltrexone” value is given as ~ 75 fold.

In the case of `CN1CC[C@]23c4c5ccc(O)c4O[C@H]2[C@@H](O)C=C[C@H]3[C@H]1C5` [morphine], in test [1], the “analgesia to radiant heat compared to baseline” value was “produced significant analgesia to radiant heat”.
